In patent EP3057951B1, “METHYLENE LINKED QUINOLINYL MODULATORS OF ROR-GAMMA-T” (Janssen Pharmaceutica NV, priority 2013, dated 2015):
Counter-ions that a name gives are not always drawn.

These compounds were tested against T1, wild type human RORγt ligand binding domain (RORyt LBD) (Homo sapiens, UniProt P51449) (assay: RORγt ThermoFluor assay (thermal shift, binding affinity KD)).
T1 construct: His-tag (N); TurboTEV protease cleavage site (ENLYFQG) (N); made in house; host or cells: E. coli (pHIS1, modified pET vector)
T1 sequence (P51449 258-518): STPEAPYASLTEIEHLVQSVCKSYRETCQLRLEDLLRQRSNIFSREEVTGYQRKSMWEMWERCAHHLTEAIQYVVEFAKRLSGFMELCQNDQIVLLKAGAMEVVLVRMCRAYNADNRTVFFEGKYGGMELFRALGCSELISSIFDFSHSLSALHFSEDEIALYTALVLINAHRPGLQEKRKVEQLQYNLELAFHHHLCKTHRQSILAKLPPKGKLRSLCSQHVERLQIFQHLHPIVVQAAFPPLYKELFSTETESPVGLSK

Structure (SMILES)	Kd
Cc1nc2ccc(C(O)(c3ccc(C(F)(F)F)nc3)c3cncn3C)cc2c(Cl)c1Cc1ccc(C(F)(F)F)cc1 (single isomer, unassigned) [Example 26c, (4-Chloro-2-methyl-3-(4-(trifluoromethyl)benzyl)quinolin-6-yl)(1-methyl-1H-imidazol-5-yl)(6-(trifluoromethyl)pyridin-3-yl)methanol]	0.77 nM
COc1nc2ccc(C(O)(c3c(C)noc3C)c3cnnn3C)cc2c(C#N)c1Cc1ccc(C(F)(F)F)cc1 (stereo not drawn) [Example 94, 6-((3,5-Dimethylisoxazol-4-yl)(hydroxy)(1-methyl-1H-1,2,3-triazol-5-yl)methyl)-2-methoxy-3-(4-(trifluoromethyl)benzyl)quinoline-4-carbonitrile]	0.48 nM
COc1nc2ccc(C(O)(c3cnc(C)n3C)c3cnc(C)n3C)cc2c(Cl)c1Cc1ccc(OC(F)(F)F)cc1 [Example 76, (4-chloro-2-methoxy-3-(4-(trifluoromethoxy)benzyl)quinolin-6-yl)bis(1,2-dimethyl-1H-imidazol-5-yl)methanol]	0.03 nM
Cc1ccc(C(O)(c2ccc3nc(C)c(Cc4ccc(C(F)(F)F)cc4)c(Cl)c3c2)c2cnnn2C)c(C)n1 (single isomer, unassigned) [Example 28c, (4-Chloro-2-methyl-3-(4-(trifluoromethyl)benzyl)quinolin-6-yl)(2,6-dimethylpyridin-3-yl)(1-methyl-1H-1,2,3-triazol-5-yl)methanol]	0.12 nM
COc1nc2ccc(C(O)(c3ccc(C)nc3C)c3cnc(C)n3C)cc2c(Cl)c1Cc1ccc(C(F)(F)F)cc1 (single isomer, unassigned) [Example 57b, (4-Chloro-2-methoxy-3-(4-(trifluoromethyl)benzyl)quinolin-6-yl)(1,2-dimethyl-1H-imidazol-5-yl)(2,6-dimethylpyridin-3-yl)methanol]	180 nM
COc1nc2ccc(C(O)(c3ccc(C(F)(F)F)nc3)c3cnnn3C)cc2c(Cl)c1Cc1ccc(C(F)(F)F)cc1 (single isomer, unassigned) [Example 75c, (4-Chloro-2-methoxy-3-(4-(trifluoromethyl)benzyl)quinolin-6-yl)(1-methyl-1H-1,2,3-triazol-5-yl)(6-(trifluoromethyl)pyridin-3-yl)methanol]	2.5 nM
Cc1nc2ccc(C(O)(c3ccnc(C(F)(F)F)c3)c3cncn3C)cc2c(Cl)c1Cc1ccc(C(F)(F)F)cc1 (single isomer, unassigned) [Example 30b, (4-Chloro-2-methyl-3-(4-(trifluoromethyl)benzyl)quinolin-6-yl)(1-methyl-1H-imidazol-5-yl)(2-(trifluoromethyl)pyridin-4-yl)methanol]	300 nM
COc1nc2ccc(C(O)(c3ccc(C)nc3C)c3cnc(C)n3C)cc2c(Cl)c1Cc1ccc(C(F)(F)F)cc1 (single isomer, unassigned) [Example 57c, (4-Chloro-2-methoxy-3-(4-(trifluoromethyl)benzyl)quinolin-6-yl)(1,2-dimethyl-1H-imidazol-5-yl)(2,6-dimethylpyridin-3-yl)methanol]	0.02 nM
COc1nc2ccc(C(O)(c3cnc(C)n3C)c3cnc(C)n3C)cc2c(Cl)c1Cc1ccccc1C(F)(F)F [Example 6, (4-Chloro-2-methoxy-3-(2-(trifluoromethyl)benzyl)quinolin-6-yl)bis(1,2-dimethyl-1H-imidazol-5-yl)methanol•TFA]	0.046 nM
CCc1nc2ccc(C(O)(c3cnc(C)n3C)c3cnc(C)n3C)cc2c(Cl)c1Cc1ccc(C(F)(F)F)cc1 [Example 4, (4-Chloro-2-ethyl-3-(4-(trifluoromethyl)benzyl)quinolin-6-yl)bis(1,2-dimethyl-1H-imidazol-5-yl)methanole•TFA]	0.006 nM
COc1nc2ccc(C(O)(c3cnc(C)n3C)c3cnc(C)n3C)cc2c(C#N)c1Cc1ccc(C(F)(F)F)cc1 [Example 11, 6-(bis(1,2-Dimethyl-1H-imidazol-5-yl)(hydroxy)methyl)-2-methoxy-3-(4-(trifluoromethyl)benzyl)quinoline-4-carbonitrile]	0.013 nM
Cc1nc2ccc(C(O)(c3cnnn3C)c3cnc(C)n3C)cc2c(Cl)c1Cc1ccc(C(F)(F)F)cc1 (stereo not drawn) [Example 29a, (4-Chloro-2-methyl-3-(4-(trifluoromethyl)benzyl)quinolin-6-yl)(1,2-dimethyl-1H-imidazol-5-yl)(1-methyl-1H-1,2,3-triazol-5-yl)methanol]	0.06 nM
COc1nc2ccc(C(O)(c3cnc(C)n3C)c3cnc(C)n3C)cc2c(C#N)c1Cc1cccc(C(F)(F)F)c1 [Example 9, 6-(bis(1,2-Dimethyl-1H-imidazol-5-yl)(hydroxy)methyl)-2-methoxy-3-(3-(trifluoromethyl)benzyl)quinoline-4-carbonitrile•TFA]	0.055 nM
COc1nc2ccc(C(O)(c3ccc(C)nc3C)c3cnc(C)n3C)cc2c(Cl)c1Cc1ccc(C(F)(F)F)nc1 (single isomer, unassigned) [Example 42b, (4-Chloro-2-methoxy-3-((6-(trifluoromethyl)pyridin-3-yl)methyl)quinolin-6-yl)(1,2-dimethyl-1H-imidazol-5-yl)(2,6-dimethylpyridin-3-yl)methanol]	970 nM
COc1nc2ccc(C(O)(c3ccc(C)nc3C)c3cnc(C)n3C)cc2c(Cl)c1Cc1ccc(C(F)(F)F)nc1 (single isomer, unassigned) [Example 42c, (4-Chloro-2-methoxy-3-((6-(trifluoromethyl)pyridin-3-yl)methyl)quinolin-6-yl)(1,2-dimethyl-1H-imidazol-5-yl)(2,6-dimethylpyridin-3-yl)methanol]	0.18 nM
Cc1nc2ccc(C(O)(c3cnnn3C)c3cnc(C)n3C)cc2c(Cl)c1Cc1ccc(C(F)(F)F)cc1 (single isomer, unassigned) [Example 29c, (4-Chloro-2-methyl-3-(4-(trifluoromethyl)benzyl)quinolin-6-yl)(1,2-dimethyl-1H-imidazol-5-yl)(1-methyl-1H-1,2,3-triazol-5-yl)methanol]	0.15 nM

The remaining lines, values ahead:

Kd	Structure (SMILES)
0.79 nM	Cc1nc2ccc(C(O)(c3cnnn3C)C3CN(C(=O)OC(C)(C)C)C3)cc2c(Cl)c1Cc1ccc(C(F)(F)F)cc1 (stereo not drawn) [Example 31, tert-Butyl 3-((4-chloro-2-methyl-3-(4-(trifluoromethyl)benzyl)quinolin-6-yl)(hydroxy)(1-methyl-1H-1,2,3-triazol-5-yl)methyl)azetidine-1-carboxylate]
0.03 nM	CCc1nc2ccc(C(O)(c3cnc(C)n3C)C3CCOCC3)cc2c(Cl)c1Cc1ccc(C(F)(F)F)cc1 (stereo not drawn) [Example 34a, (4-Chloro-2-ethyl-3-(4-(trifluoromethyl)benzyl)quinolin-6-yl)(1,2-dimethyl-1H-imidazol-5-yl)(tetrahydro-2H-pyran-4-yl)methanol]
5 nM	COc1nc2ccc(C(O)(c3cnnn3C)C3CN(C)C3)cc2c(Cl)c1Cc1ccc(C(F)(F)F)cc1 (racemic) [Example 90a, (4-Chloro-2-methoxy-3-(4-(trifluoromethyl)benzyl)quinolin-6-yl)(1-methyl-1H-1,2,3-triazol-5-yl)(1-methylazetidin-3-yl)methanol]
1.1 nM	CC(=O)N1CC(C(O)(c2ccc3nc(C)c(Cc4ccc(C(F)(F)F)cc4)c(Cl)c3c2)c2cnnn2C)C1 (stereo not drawn) [Example 32a, 1-(3-((4-Chloro-2-methyl-3-(4-(trifluoromethyl)benzyl)quinolin-6-yl)(hydroxy)(1-methyl-1H-1,2,3-triazol-5-yl)methyl)azetidin-1-yl)ethanone]
0.05 nM	CCc1nc2ccc(C(O)(c3cnnn3C)C3CCOCC3)cc2c(Cl)c1Cc1ccc(C(F)(F)F)cc1 (stereo not drawn) [Example 33a, (4-Chloro-2-ethyl-3-(4-(trifluoromethyl)benzyl)quinolin-6-yl)(1-methyl-1H-1,2,3-triazol-5-yl)(tetrahydro-2H-pyran-4-yl)methanol]
27 nM	COc1nc2ccc(C(O)(c3cnc(C)n3C)C3CCOCC3)cc2c(Cl)c1Cc1ccc(C(F)(F)F)cc1 (single isomer, unassigned) [Example 86b, (4-Chloro-2-methoxy-3-(4-(trifluoromethyl)benzyl)quinolin-6-yl)(1,2-dimethyl-1H-imidazol-5-yl)(tetrahydro-2H-pyran-4-yl)methanol]
46 nM	COc1nc2ccc(C(O)(C3CN(C(C)=O)C3)C3CN(C(C)=O)C3)cc2c(Cl)c1Cc1ccc(C(F)(F)F)cc1 [Example 3, 1,1'-(3,3'-((4-Chloro-2-methoxy-3-(4-(trifluoromethyl)benzyl)quinolin-6-yl)(hydroxy)methylene)bis(azetidine-3,1-diyl))diethanone]
3 nM	CCc1nc2ccc(C(O)(c3ccccc3)C3CCN(C(C)=O)CC3)cc2c(Cl)c1Cc1ccc(-n2cccn2)cc1 (stereo not drawn) [Example 35, 1-(4-((3-(4-(1H-Pyrazol-1-yl)benzyl)4-chloro-2-ethylquinolin-6-yl)(hydroxy)(phenyl)methyl)piperidin-1-yl)ethanone]
0.84 nM	CCc1nc2ccc(C(O)(c3cnnn3C)C3CCOCC3)cc2c(Cl)c1Cc1ccc(C(F)(F)F)cc1 (single isomer, unassigned) [Example 33c, (4-Chloro-2-ethyl-3-(4-(trifluoromethyl)benzyl)quinolin-6-yl)(1-methyl-1H-1,2,3-triazol-5-yl)(tetrahydro-2H-pyran-4-yl)methanol]
0.73 nM	CCc1nc2ccc(C(O)(c3cnnn3C)C3CN(C(C)=O)C3)cc2c(C#N)c1Cc1ccc(C(F)(F)F)cc1 (single isomer, unassigned) [Example 36, 6-((1-Acetylazetidin-3-yl)(hydroxy)(1-methyl-1H-1,2,3-triazol-5-yl)methyl)-2-ethyl-3-(4-(trifluoromethyl)benzyl)quinoline-4-carbonitrile]
34 nM	COc1nc2ccc(C(O)(c3ccccn3)c3cncn3C)cc2c(Cl)c1Cc1cc2ccccc2s1 (single isomer, unassigned) [Example 59b, (3-(Benzo[b]thiophen-2-ylmethyl)-4-chloro-2-methoxyquinolin-6-yl)(1-methyl-1H-imidazol-5-yl)(pyridin-2-yl)methanol]
